# Results taken from US20100010078A1, “METHODS OF TREATING ANDROGEN DEPENDENT PROSTATE CANCER BY ADMINISTERING AN ACTIVE PHARMACEUTICAL INGREDIENT BEING FISETIN, 3,3',4',7-TETRAHYDROXYFLAVONE OR A DERIVATIVE THEREOF, IN AN ORAL, TRANSDERMAL OR TOPICAL DOSAGE FORM” (priority 2008, published 2010).
# Read-outs that look alike come from different tables or passages of the source.
# What was measured:
# [1] = test system: LNCaP cells; assay: Apoptosis by Cell Death Detection ELISAPLUS; format: cell-based, human; details: 48 h
# Method: Apoptosis by ELISA. Following treatment of LNCaP cells with fisetin (10-60 μM; 48 h), the extent of apoptosis was determined by Cell Death Detection ELISA^PLUS assay, according to the manufacturer's protocol. The whole cell lysate (40 μg of total protein) was added to the lysis buffer and pipetted on a streptavidin-coated 96-well microtiter plate to which the immunoreagent mix was added and incubated for 2 h at room temperature, with continuous shaking at 500 rpm. The wells were then washed with washing buffer, the substrate solution added, the color developed (10-20 min) was read at 405 nm against the blank, reference wavelength of 490 nm. The enrichment factor (total amount of apoptosis) was calculated by dividing the absorbance of the sample (A405 nm) by the absorbance of the controls without treatment ([…]).
# [2] = test system: PC-3 cells; assay: MTT cell viability assay, PC-3 cells; format: cell-based; details: Homo sapiens, read-out: decrease in cell viability; for cytotoxicity at 10 µM: PC-3, fisetin 10 μM; for cytotoxicity at 20 µM: PC-3, fisetin 20 μM; for cytotoxicity at 40 µM: PC-3, fisetin 40 μM; for cytotoxicity at 60 µM: PC-3, fisetin 60 μM
# Method: obtained from ATCC (Manassas, Va.). LNCaP cells were cultured in Dulbecco's Modified Eagle's medium supplemented with 5% heat-inactivated fetal bovine serum and 1% penicillin/streptomycin (P-S). CWR22Ru1 and PC-3 cells were grown in RPMI 1640 (Invitrogen) supplemented with 10% fetal bovine serum and 1% P-S. Human prostate epithelial cells (PrEC) were obtained from Cambrex Bioscience (Walkersville, Md.) and grown in prostate epithelial basal cell medium (Cambrex Bioscience) according to the manufacturer's instructions. The cells were maintained under standard cell culture conditions at 37° C. and 5% CO2 in a humid environment. Fisetin dissolved in dimethyl sulfoxide (final concentration 0.1% v/v) was used for the treatment of cells. The cells (60-70% confluent) were treated with fisetin (10-60 μM) for 24 and 48 h in complete growth medium.
# Cell viability. The effect of fisetin on the viability of cells was determined by 3-[4,5-dimethylthiazol-2-yl]-2,5-diphenyl tetrazoliumbromide assay. LNCaP, CWR22Ru1, PC-3 and PrEC cells were plated at 1×10^4 cells per well in 200 μl of complete culture medium containing 10-60 μM concentrations of fisetin in 96-well microtiter plates for 24 and 48 h. After incubation for specified times at 37° C. in a humidified incubator, 3-[4,5-dimethylthiazol-2-yl]-2,5-diphenyl tetrazoliumbromide (5 mg/ml in PBS) was added to each well and incubated for 2 h, after which the plate was centrifuged at 1,800×g for 5 min at 4° C. The absorbance was recorded on a microplate reader at the wavelength of 540 nm. The effect of fisetin on growth inhibition was assessed as percent cell viability where DMSO-treated cells were taken as 100% viable. DMSO at the concentrations used was without any effect on cell viability.
# [3] = test system: WAF1/p21 and KIP1/p27; assay: Western blot, WAF1/p21 and KIP1/p27 in LNCaP cells; format: cell-based, human; details: fisetin 10-60 μM, 48 h
# Method: (§1) Protein extraction and western blotting. Following the treatment of LNCaP cells with fisetin (10-60 μM; 48 h), the media was aspirated, the cells were washed with cold PBS (pH 7.4), and ice-cold lysis buffer (50 mM Tris-HCl, 150 mM NaCl, 1 mM EGTA, 1 mM EDTA, 20 mM NaF, 100 mM Na3VO4, 0.5% NP-40, 1% Triton X-100, 1 mM PMSF (pH 7.4)) with freshly added protease inhibitor cocktail (Protease Inhibitor Cocktail Set III, Calbiochem, La Jolla, Calif.) over ice for 30 min. The cells were scraped and the lysate was collected in a microfuge tube and passed through a needle to break up the cell aggregates. […]
# (§2) For western blotting, 30-50 μg protein was resolved over 8-12% polyacrylamide gels and transferred to a nitrocellulose membrane. The blot was blocked in blocking buffer (5% nonfat dry milk/1% Tween 20; in 20 mM TBS, pH 7.6) for 1 hr at room temperature, incubated with appropriate monoclonal or polyclonal primary antibody in blocking buffer for 1.5 h to overnight at 4° C., followed by incubation with anti-mouse or anti-rabbit secondary antibody horseradish peroxidase conjugate obtained from Amersham Life Science Inc. and detected by chemiluminescence and autoradiography using XAR-5 film obtained from Eastman Kodak Co. (Rochester, N.Y., USA). […]
# [4] = test system: Bax and Bcl-2; assay: Western blot, Bax and Bcl-2 in LNCaP cells; format: cell-based, human; details: fisetin 10-60 μM, 48 h
# Method: Protein extraction and western blotting. Following the treatment of LNCaP cells with fisetin (10-60 μM; 48 h), the media was aspirated, the cells were washed with cold PBS (pH 7.4), and ice-cold lysis buffer (50 mM Tris-HCl, 150 mM NaCl, 1 mM EGTA, 1 mM EDTA, 20 mM NaF, 100 mM Na3VO4, 0.5% NP-40, 1% Triton X-100, 1 mM PMSF (pH 7.4)) with freshly added protease inhibitor cocktail (Protease Inhibitor Cocktail Set III, Calbiochem, La Jolla, Calif.) over ice for 30 min. The cells were scraped and the lysate was collected in a microfuge tube and passed through a needle to break up the cell aggregates. The lysate was cleared by centrifugal ion al 14,000 g for 15 min at 4° C. and the supernatant (whole cell lysate) was used or immediately stored at […].
# For western blotting, 30-50 μg protein was resolved over 8-12% polyacrylamide gels and transferred to a nitrocellulose membrane. The blot was blocked in blocking buffer (5% nonfat dry milk/1% Tween 20; in 20 mM TBS, pH 7.6) for 1 hr at room temperature, incubated with appropriate monoclonal or polyclonal primary antibody in blocking buffer for 1.5 h to overnight at 4° C., followed by incubation with anti-mouse or anti-rabbit secondary antibody horseradish peroxidase conjugate obtained from Amersham Life Science Inc. and detected by chemiluminescence and autoradiography using XAR-5 film obtained from Eastman Kodak Co. (Rochester, N.Y., USA). Densitometric measurements of the band in Western blot analysis were performed using digitalized scientific software program UN-SCAN-IT (Silk Scientific Corporation. Orem, Utah.
# [5] = test system: LNCaP cells; assay: Apoptosis assessment by annexin-V staining; format: cell-based, human; details: fisetin 10-60 μM, 48 h
# Method: Apoptosis assessment by annexin-V staining. The Annexin-V-Fluos staining kit was used for the detection of apoptotic cells according to vendor's protocol. This kit uses a staining protocol in which the apoptotic cells are stained with annexin-V (green fluorescence). The LNCaP cells were grown to 70% confluency and treated with fisetin (10-60 μM) for 48 h. The fluorescence was measured by a Zeiss 410 confocal microscope (Thornwood, N.Y.). Confocal images of green annexin-FITC fluorescence were collected using 488 nm excitation light from an argon/krypton laser, a 560 nm dichroic mirror and a 514-540 nm bandpass barrier filter.
# [6] = test system: Bak, Bcl-xL, Bad and Bid; assay: Western blot, Bak, Bad, Bid and Bcl-xL in LNCaP cells; format: cell-based, human; details: fisetin 10-60 μM, 48 h
# Method: as §1, §2
# [7] = molecular target: T1, ligand binding domain (LBD) of androgen receptor (AR) (Homo sapiens, UniProt P10275); assay: Competition with labeled AR ligand at the ligand binding domain (FIG. 3)
# T1 sequence (P10275 669-900 limits assumed): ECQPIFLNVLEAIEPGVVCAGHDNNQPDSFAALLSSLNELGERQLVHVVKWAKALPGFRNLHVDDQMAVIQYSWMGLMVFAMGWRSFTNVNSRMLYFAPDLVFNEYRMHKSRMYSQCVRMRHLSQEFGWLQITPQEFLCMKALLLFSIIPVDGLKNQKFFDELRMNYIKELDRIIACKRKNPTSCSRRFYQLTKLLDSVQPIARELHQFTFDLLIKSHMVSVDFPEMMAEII
smiles,measurement,setting,value
"O=c1c(O)c(-c2ccc(O)c(O)c2)oc2cc(O)ccc12 [fisetin, 3,3′,4′,7-tetrahydroxyflavone]",apoptosis as compared to control,[1]; fisetin 10 μM,40%
same,apoptosis as compared to control,[1]; fisetin 20 μM,64%
same,apoptosis as compared to control,[1]; fisetin 40 μM,103%
same,apoptosis as compared to control,[1]; fisetin 60 μM,106%
same,cytotoxicity at 10 µM,[2]; 24 h,7%
same,cytotoxicity at 10 µM,[2]; 48 h,11%
same,cytotoxicity at 20 µM,[2]; 24 h,18%
same,cytotoxicity at 20 µM,[2]; 48 h,25%
same,cytotoxicity at 40 µM,[2]; 24 h,24%
same,cytotoxicity at 40 µM,[2]; 48 h,32%
same,cytotoxicity at 60 µM,[2]; 24 h,33%
same,cytotoxicity at 60 µM,[2]; 48 h,46%
same,protein expression of WAF1/p21 and KIP1/p27,[3],induction
same,protein expression of Bax,[4],significant increase
same,protein expression of Bcl-2,[4],significantly decreased
same,ratio of Bax to Bcl-2,[4],significant dose-dependent shift
same,apoptotic cells by annexin-V staining,[5],increased
same,Bcl-xL expression,[6],significant decrease
same,"protein expression of Bak, Bad and Bid",[6],significant increase
same,"competition with labeled AR ligand, interaction with LBD",[7],competes with a labeled AR ligand
